ChEMBL document CHEMBL3885881, “DrugMatrix”

Organism: Rattus norvegicus
Experiment: DrugMatrix - Regimen: Daily Repeat
Assay type: toxicity, organism-based, Sprague-Dawley
Parameters: regimen Daily Repeat, gender Male, age 6-8 weeks
Conditions: in vivo, po, 1200 mg/kg, route oral GAVAGE, dose level High, vehicle 100 % WATER; for ALANINE AMINOTRANSFERASE / ALBUMIN / ALKALINE PHOSPHATASE / ASPARTATE AMINOTRANSFERASE / BLOOD UREA NITROGEN / CARBON DIOXIDE / CHLORIDE / CHOLESTEROL / CREATINE PHOSPHOKINASE / CREATININE / GLUCOSE / LACTATE DEHYDROGENASE / LIPASE / PHOSPHORUS / POTASSIUM / SODIUM / TOTAL BILIRUBIN / TOTAL PROTEIN / URIC ACID: tissue Plasma
[1] = 120 h, tissue Blood, time 5 day

## COCCc1ccc(OCC(O)CNC(C)C)cc1 (configuration not stated) [METOPROLOL]
72 h, tissue Blood, time 3 day
  ABSOLUTE SEGMENTED NEUTROPHIL: 909.67 CELLS/uL
  BASOPHIL: 0%
  EOSINOPHIL: 2.33%
  ERYTHROCYTE COUNT: 5.22 x10E6/uL
  HEMATOCRIT: 33.73%
  HEMOGLOBIN: 12.8 G/DL
  LEUKOCYTE COUNT: 12.47 x10E3/uL
  LYMPHOCYTE: 90.33%
  MEAN CORPUSCULAR HEMOGLOBIN: 24.57 pg
  MEAN CORPUSCULAR HEMOGLOBIN CONCENTRATION: 37.93 G/DL
  MEAN CORPUSCULAR VOLUME: 64.7 fL
  MONOCYTE: 0%
  NEUTROPHIL: 7.33%
  NUCLEATED RED BLOOD CELLS: 0 /100WBC
  PLATELET COUNT: 1290.67 x10E3/uL
72 h, time 3 day
  ALANINE AMINOTRANSFERASE: 53.67 u/L
  ALBUMIN: 3.87 G/DL
  ALKALINE PHOSPHATASE: 394 u/L
  ASPARTATE AMINOTRANSFERASE: 71 u/L
  BLOOD UREA NITROGEN: 17.33 mg/dL
  CARBON DIOXIDE: 22.33 mmol/L
  CHLORIDE: 107.33 MEQ/L
  CHOLESTEROL: 61.67 mg/dL
  CREATINE PHOSPHOKINASE: 205.67 u/L
  CREATININE: 0.14 mg/dL
  GLUCOSE: 163.67 mg/dL
  LACTATE DEHYDROGENASE: 229 u/L
  LIPASE: 8 u/L
  PHOSPHORUS: 13.37 mg/dL
  POTASSIUM: 7.13 MEQ/L
  SODIUM: 143.6 MEQ/L
  TOTAL BILIRUBIN: 0.2 mg/dL
  TOTAL PROTEIN: 5.57 G/DL
  URIC ACID: 1.77 mg/dL
[1]
  ABSOLUTE BASOPHIL: 0 CELLS/uL
  ABSOLUTE EOSINOPHIL: 118 CELLS/uL
  ABSOLUTE LYMPHOCYTE: 10653.33 CELLS/uL
  ABSOLUTE MONOCYTE: 40.33 CELLS/uL
  ABSOLUTE SEGMENTED NEUTROPHIL: 1388.33 CELLS/uL
  BASOPHIL: 0%
  EOSINOPHIL: 1%
  ERYTHROCYTE COUNT: 5.92 x10E6/uL
  HEMATOCRIT: 35.9%
  HEMOGLOBIN: 13.47 G/DL
  LEUKOCYTE COUNT: 12.2 x10E3/uL
  LYMPHOCYTE: 87.33%
  MEAN CORPUSCULAR HEMOGLOBIN: 22.77 pg
  MEAN CORPUSCULAR HEMOGLOBIN CONCENTRATION: 37.5 G/DL
  MEAN CORPUSCULAR VOLUME: 60.63 fL
  MONOCYTE: 0.33%
  NEUTROPHIL: 11.33%
  NUCLEATED RED BLOOD CELLS: 0 /100WBC
  PLATELET COUNT: 1269 x10E3/uL
120 h, time 5 day
  ALANINE AMINOTRANSFERASE: 41.67 u/L
  ALBUMIN: 4 G/DL
  ALKALINE PHOSPHATASE: 311.67 u/L
  ASPARTATE AMINOTRANSFERASE: 79 u/L
  BLOOD UREA NITROGEN: 16 mg/dL
  CARBON DIOXIDE: 25 mmol/L
  CHLORIDE: 102.33 MEQ/L
  CHOLESTEROL: 50.67 mg/dL
  CREATINE PHOSPHOKINASE: 364.33 u/L
  CREATININE: 0.21 mg/dL
  GLUCOSE: 161.33 mg/dL
  LACTATE DEHYDROGENASE: 430 u/L
  LIPASE: 8 u/L
  PHOSPHORUS: 11.67 mg/dL
  POTASSIUM: 6.24 MEQ/L
  SODIUM: 141.53 MEQ/L
  TOTAL BILIRUBIN: 0.2 mg/dL
  TOTAL PROTEIN: 5.6 G/DL
  URIC ACID: 1.73 mg/dL
